The source of these data is patent US20250304576A1 (Cancer Research Technology Limited, priority 2022, published 2025).

For one assay, the target named is T1, Recombinant IKKβ (Homo sapiens, UniProt O14920).
T1 construct: purchased Millipore, Dundee, UK
T1 sequence (O14920 1-756): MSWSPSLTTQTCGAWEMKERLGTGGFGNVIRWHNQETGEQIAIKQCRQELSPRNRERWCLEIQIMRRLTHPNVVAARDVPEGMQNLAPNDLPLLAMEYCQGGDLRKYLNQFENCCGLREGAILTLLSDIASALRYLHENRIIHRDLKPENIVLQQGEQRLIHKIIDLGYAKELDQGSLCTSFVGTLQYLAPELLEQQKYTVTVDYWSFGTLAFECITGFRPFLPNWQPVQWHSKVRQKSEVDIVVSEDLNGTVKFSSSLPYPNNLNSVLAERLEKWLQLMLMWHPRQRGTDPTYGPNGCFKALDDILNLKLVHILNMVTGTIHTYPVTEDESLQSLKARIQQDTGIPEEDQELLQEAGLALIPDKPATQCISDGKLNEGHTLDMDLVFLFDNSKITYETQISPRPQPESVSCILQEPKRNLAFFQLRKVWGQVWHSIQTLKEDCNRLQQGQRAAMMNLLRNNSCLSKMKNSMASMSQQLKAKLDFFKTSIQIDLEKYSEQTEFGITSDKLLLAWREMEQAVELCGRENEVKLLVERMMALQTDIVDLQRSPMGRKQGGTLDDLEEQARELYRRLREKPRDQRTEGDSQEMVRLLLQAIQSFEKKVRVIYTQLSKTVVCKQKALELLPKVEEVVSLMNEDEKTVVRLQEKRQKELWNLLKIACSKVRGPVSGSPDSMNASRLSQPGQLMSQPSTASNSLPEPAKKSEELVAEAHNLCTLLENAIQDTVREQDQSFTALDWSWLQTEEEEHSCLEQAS
Description: DELFIA IKKβ kinase assay (apparent Ki, Cheng-Prusoff). It counts as biochemical. The conditions noted are these: non-italicised figure: DELFIA assay. Put shortly: (§1)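 DELFIA time-resolved fluorescence (ex 340/em 615 nm) quantified phosphorylation of a biotinylated IκB-α Ser32 peptide (0.375 μM) by 37 nM recombinant IKKα or IKKβ. Reactions used 40 μM ATP, Tris pH 7.5 buffer with MgCl2, DTT and BSA, 60 min at 30° C. Cheng-Prusoff equation gave apparent Ki.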

The target of a further assay is T2, Recombinant IKKα (Homo sapiens, UniProt O15111).
T2 construct: purchased Millipore, Dundee, UK
T2 sequence (O15111 1-745): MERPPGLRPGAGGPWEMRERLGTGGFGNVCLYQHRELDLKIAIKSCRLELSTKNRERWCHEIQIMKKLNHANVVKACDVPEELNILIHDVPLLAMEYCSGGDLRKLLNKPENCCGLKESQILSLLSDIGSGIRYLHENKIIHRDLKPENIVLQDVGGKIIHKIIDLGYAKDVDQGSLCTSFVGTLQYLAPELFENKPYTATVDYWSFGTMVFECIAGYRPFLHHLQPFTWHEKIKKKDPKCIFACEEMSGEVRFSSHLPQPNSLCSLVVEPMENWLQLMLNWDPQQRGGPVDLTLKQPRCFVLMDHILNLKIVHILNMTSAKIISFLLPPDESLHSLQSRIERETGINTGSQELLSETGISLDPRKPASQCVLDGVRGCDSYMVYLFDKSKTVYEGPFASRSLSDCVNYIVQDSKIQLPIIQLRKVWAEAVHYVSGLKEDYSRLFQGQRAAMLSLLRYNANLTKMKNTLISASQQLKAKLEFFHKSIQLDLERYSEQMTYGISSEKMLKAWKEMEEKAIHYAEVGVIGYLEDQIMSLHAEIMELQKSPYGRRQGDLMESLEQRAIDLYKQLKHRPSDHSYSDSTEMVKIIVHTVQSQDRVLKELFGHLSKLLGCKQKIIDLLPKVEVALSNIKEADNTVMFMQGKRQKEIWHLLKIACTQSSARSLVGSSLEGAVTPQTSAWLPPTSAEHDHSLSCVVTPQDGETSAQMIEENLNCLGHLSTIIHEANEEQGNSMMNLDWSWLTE
Description: DELFIA IKKα kinase assay (apparent Ki, Cheng-Prusoff). The conditions noted are these: non-italicised figure: DELFIA assay. It counts as biochemical. Put shortly:
as §1

In the case of `Nc1ccc(C#Cc2c(-c3ccc4[nH]nc(N)c4c3)ccnc2N)cc1` [Example 76, 5-(2-Amino-3-((4-aminophenyl)ethynyl)pyridine-4-yl)-1H-indazol-3-amine], the values for the Ki at Recombinant IKKβ and at Recombinant IKKα were 32 nM and 8 nM, respectively.

For the compound `Nc1cccc(C#Cc2c(-c3ccc4[nH]nc(N)c4c3)ccnc2N)c1` [Example 77, 5-(2-Amino-3-((3-aminophenyl)ethynyl)pyridine-4-yl)-1H-indazol-3-amine], the Ki at Recombinant IKKβ amounted to 22 nM; at Recombinant IKKα, 4 nM.

In the case of `Nc1ccccc1C#Cc1c(-c2ccc3[nH]nc(N)c3c2)ccnc1N` [Example 78, 5-(2-Amino-3-((2-aminophenyl)ethynyl)pyridine-4-yl)-1H-indazol-3-amine], the values for the Ki on Recombinant IKKβ and at Recombinant IKKα were 59 nM and 17 nM, respectively.

`COC(=O)c1cccc(C#Cc2c(-c3ccc4[nH]nc(N)c4c3)ccnc2N)c1` [Example 79, Methyl 3-((2-amino-4-(3-amino-1H-indazol-5-yl)149yridine-3-yl)ethynyl)benzoate]: the Ki at Recombinant IKKβ is 128 nM; on Recombinant IKKα, 17 nM.

Take `COC(=O)c1ccc(C#Cc2c(-c3ccc4[nH]nc(N)c4c3)ccnc2N)cc1` [Example 80, Methyl 4-((2-amino-4-(3-amino-1H-indazol-5-yl)150yridine-3-yl)ethynyl)benzoate]: the values for the Ki at Recombinant IKKβ and on Recombinant IKKα were 15 nM and 2 nM, respectively.

Take `COc1ccccc1C#Cc1c(-c2ccc3[nH]nc(N)c3c2)ccnc1N` [Example 81, 5-(2-Amino-3-((2-methoxyphenyl)ethynyl)pyridine-4-yl)-1H-indazol-3-amine]: the Ki turned out to be 484 nM on Recombinant IKKβ and 15 nM at Recombinant IKKα.

Turning to `Nc1nccc(-c2ccc3[nH]nc(N)c3c2)c1C#CCCC(=O)c1ccccc1` [Example 82, 5-(2-Amino-4-(3-amino-1H-indazol-5-yl)pyridine-3-yl)-1-phenylpent-4-yn-1-one], the Ki at Recombinant IKKβ was 537 nM; on Recombinant IKKα, 19 nM.

As for `CC(C)(O)CCC#Cc1c(-c2ccc3[nH]nc(N)c3c2)ccnc1N` [Example 86, 6-(2-Amino-4-(3-amino-1H-indazol-5-yl)pyridine-3-yl)-2-methylhex-5-yn-2-ol], the values for the Ki on Recombinant IKKβ and on Recombinant IKKα were 390 nM and 28 nM, respectively.

In the case of `Nc1nccc(-c2ccc3[nH]nc(N)c3c2)c1C#CCCN1CCOCC1` [Example 94, 5-(2-Amino-3-(4-morpholinobut-1-yn-1-yl)pyridin-4-yl)-1H-indazol-3-amine], the Ki turned out to be 922 nM at Recombinant IKKβ and 38 nM on Recombinant IKKα.

As for `Nc1nccc(-c2ccc3[nH]nc(N)c3c2)c1C#CCC1CCNCC1` [Example 97, 5-(2-Amino-3-(3-(piperidin-4-yl)prop-1-yn-1-yl)pyridin-4-yl)-1H-indazol-3-amine], the Ki worked out at 105 nM on Recombinant IKKβ and 15 nM on Recombinant IKKα.

In the case of `CNC(=O)C#Cc1c(-c2ccc3[nH]nc(N)c3c2)ccnc1N` [Example 98, 3-(2-Amino-4-(3-amino-1H-indazol-5-yl)pyridin-3-yl)-N-methylpropiolamide], the Ki on Recombinant IKKβ and on Recombinant IKKα was > 10000 nM in each case.

On to `Nc1nccc(-c2ccc3[nH]nc(N)c3c2)c1C1CC1` [Example 100, 5-(2-Amino-3-cyclopropylpyridin-4-yl)-1H-indazol-3-amine], for which the results for the Ki on Recombinant IKKβ and at Recombinant IKKα were > 10000 nM and 1790 nM, respectively.

Take `Nc1cc(-c2cc(-c3cccc(F)c3)c3[nH]nc(N)c3c2)ccn1` [Example 105, 5-(2-Aminopyridin-4-yl)-7-(3-fluorophenyl)-1H-indazol-3-amine]: the Ki on Recombinant IKKβ is 500 nM; at Recombinant IKKα it was 40 nM.

Regarding `Nc1cc(-c2cc(-c3cccc(C(F)(F)F)c3)c3[nH]nc(N)c3c2)ccn1` [Example 106, 5-(2-Aminopyridin-4-yl)-7-(3-(trifluoromethyl)phenyl)-1H-indazol-3-amine], the Ki worked out at 1010 nM on Recombinant IKKβ and 162 nM on Recombinant IKKα.

Turning to `Nc1cccc(-c2cc(-c3ccnc(N)c3)cc3c(N)n[nH]c23)c1` [Example 107, 7-(3-Aminophenyl)-5-(2-aminopyridin-4-yl)-1H-indazol-3-amine], the Ki at Recombinant IKKβ stood at 545 nM; on Recombinant IKKα, 14 nM.

As for `Nc1cc(-c2cc(-c3cccc(O)c3)c3[nH]nc(N)c3c2)ccn1` [Example 108, 3-(3-Amino-5-(2-aminopyridin-4-yl)-1H-indazol-7-yl)phenol], the Ki on Recombinant IKKβ stood at 680 nM; at Recombinant IKKα, 10 nM.

Take `COc1cccc(-c2cc(-c3ccnc(N)c3)cc3c(N)n[nH]c23)c1` [Example 109, 5-(2-Aminopyridin-4-yl)-7-(3-methoxyphenyl)-1H-indazol-3-amine]: the figures for the Ki on Recombinant IKKβ and on Recombinant IKKα were 587 nM and 55 nM, respectively.

`Nc1cc(-c2cc(-c3cccc(CO)c3)c3[nH]nc(N)c3c2)ccn1` [Example 110]: the Ki at Recombinant IKKβ came to 290 nM; at Recombinant IKKα, 29 nM.

For the compound `Nc1cc(-c2cc(-c3cccc(C=O)c3)c3[nH]nc(N)c3c2)ccn1` [Example 111, 3-(3-Amino-5-(2-aminopyridin-4-yl)-1H-indazol-7-yl)benzaldehyde], the Ki at Recombinant IKKβ was determined as 100 nM; at Recombinant IKKα, 12 nM.

Consider `CCOC(=O)c1cccc(-c2cc(-c3ccnc(N)c3)cc3c(N)n[nH]c23)c1` [Example 112, Ethyl 3-(3-amino-5-(2-aminopyridin-4-yl)-1H-indazol-7-yl)benzoate], for which the Ki is 1470 nM at Recombinant IKKβ and 152 nM at Recombinant IKKα.

As to `NC(=O)c1cccc(-c2cc(-c3ccnc(N)c3)cc3c(N)n[nH]c23)c1` [Example 113, 3-(3-Amino-5-(2-aminopyridin-4-yl)-1H-indazol-7-yl)benzamide], the Ki on Recombinant IKKβ amounted to 840 nM; on Recombinant IKKα, 43 nM.

On to `Nc1cc(-c2cc(-c3cccc(S(N)(=O)=O)c3)c3[nH]nc(N)c3c2)ccn1` [Example 114, 3-(3-Amino-5-(2-aminopyridin-4-yl)-1H-indazol-7-yl)benzenesulfonamide], for which the Ki amounted to 461 nM on Recombinant IKKβ and 7 nM on Recombinant IKKα.

As for `CS(=O)(=O)c1cccc(-c2cc(-c3ccnc(N)c3)cc3c(N)n[nH]c23)c1` [Example 115], the Ki on Recombinant IKKβ is 2000 nM; at Recombinant IKKα it was 79 nM.

As to `Nc1cc(-c2cc(-c3cccc(CN4CCOCC4)c3)c3[nH]nc(N)c3c2)ccn1` [Example 116], the Ki at Recombinant IKKβ was 1010 nM; on Recombinant IKKα, 162 nM.

Take `Nc1cc(-c2cc(-c3ccc(O)cc3)c3[nH]nc(N)c3c2)ccn1` [Example 117, 4-(3-Amino-5-(2-aminopyridin-4-yl)-1H-indazol-7-yl)phenol]: the results for the Ki on Recombinant IKKβ and at Recombinant IKKα were 235 nM and 17 nM, respectively.

Take `Nc1cc(-c2cc(-c3ccc(CO)cc3)c3[nH]nc(N)c3c2)ccn1` [Example 118]: the Ki at Recombinant IKKβ came to 406 nM; at Recombinant IKKα it was 29 nM.

Regarding `CN(C)c1ccc(-c2cc(-c3ccnc(N)c3)cc3c(N)n[nH]c23)cc1` [Example 119, 5-(2-Aminopyridin-4-yl)-7-(4-(dimethylamino)phenyl)-1H-indazol-3-amine], the Ki on Recombinant IKKβ is 2510 nM; at Recombinant IKKα it was 84 nM.

For `NC(=O)c1ccc(-c2cc(-c3ccnc(N)c3)cc3c(N)n[nH]c23)cc1` [Example 120, 4-(3-Amino-5-(2-aminopyridin-4-yl)-1H-indazol-7-yl)benzamide], the Ki on Recombinant IKKβ was found to be 1590 nM; on Recombinant IKKα, 56 nM.

Take `Nc1cc(-c2cc(-c3ccc(S(N)(=O)=O)cc3)c3[nH]nc(N)c3c2)ccn1` [Example 121, 4-(3-Amino-5-(2-aminopyridin-4-yl)-1H-indazol-7-yl)benzenesulfonamide]: the Ki at Recombinant IKKβ is 1480 nM; on Recombinant IKKα, 27 nM.
